Reference: patent US12564638B2 (SHANGHAITECH UNIVERSITY, priority 2019, dated 2026)
pIC50: −log10 of the molar value.

Test system: HCC827 cells (EGFR Exon19 del, non-small cell lung cancer cells)
Assay: Cell viability assay (WST/CCK8), HCC827 cells
Assay type: cell-based
Conditions: Homo sapiens, HCC827, 72 h, Table 3, poziotinib-based compounds; HCC827 (Exon19 Del); 72 hours; WST (CCK8); read-out: IC50 (half inhibitory concentration)
Source text: The cell lines with abnormal EGFR expression used are as follows: • HCC827 cells (EGFR Exon19 del, non-small cell lung cancer cells); • PC9 cells (EGFR Exon 19 del, non-small cell lung cancer cells); • PC9BracA1 (EGFR Exon 19 del+T790M, non-small cell lung cancer cells) • H1975 (EGFR Exon T790M+L858R mutation, non-small cell lung cancer cell line) • BT474 cells (HER2 positive breast cancer cells)
All of the half inhibitory concentrations (IC50) of these compounds of the present invention were determined with WST reagent from Fuyuan Biotec Company. The specific experiment procedures are as follows: Cancer cells were planted in 96-well-plate at the density of 3 000 cells per well with 100 μL RPMI1640 completed culture medium. In the next day, compounds with indicated concentrations were added to the cells, DMSO was used as the negative control and the EGFR TKIs were used to treat cells as the positive groups. After 72 hours drug treatment, cell viability was measured by using the WST reagent following the instructions.
The cells were treated with the gradient concentration of these compounds (the maximum concentration: 10 μM; 3-fold dilution ratio, 10 concentration gradients) for 72 hours and then incubated with the WST (CCK8) reagent to determine the cell viability.

Row | pIC50 | SMILES
1 | 7.12 | COc1cc2ncnc(Nc3ccc(Cl)c(Cl)c3F)c2cc1OC1CCN(C(=O)CCCCC(=O)N[C@H](C(=O)N2C[C@H](O)C[C@H]2C(=O)NCc2ccc(-c3scnc3C)cc2)C(C)(C)C)CC1 [SIAIS249021, (2S,4R)-1-((S)-2-(6-(4-((4-((3,4-dichloro-2-fluorophenyl)amino)-7-methoxyquinazolin-6-yl)oxy)piperidin-1-yl)-6-oxohexanamido)-3,3-dimethylbutanoyl)-4-hydroxy-N-(4-(4-methylthiazol-5-yl)benzyl)pyrrolidine-2-carboxamide]
2 | 7.40 | COc1cc2ncnc(Nc3ccc(Cl)c(Cl)c3F)c2cc1OC1CCN(C(=O)CCCCCCC(=O)N[C@H](C(=O)N2C[C@H](O)C[C@H]2C(=O)NCc2ccc(-c3scnc3C)cc2)C(C)(C)C)CC1 [SIAIS249022, (2S,4R)-1-((S)-2-(8-(4-((4-((3,4-dichloro-2-fluorophenyl)amino)-7-methoxyquinazolin-6-yl)oxy)piperidin-1-yl)-8-oxooctanamido)-3,3-dimethylbutanoyl)-4-hydroxy-N-(4-(4-methylthiazol-5-yl)benzyl)pyrrolidine-2-carboxamide]
3 | 7.31 | COc1cc2ncnc(Nc3ccc(Cl)c(Cl)c3F)c2cc1OC1CCN(C(=O)CCCCCCCCC(=O)N[C@H](C(=O)N2C[C@H](O)C[C@H]2C(=O)NCc2ccc(-c3scnc3C)cc2)C(C)(C)C)CC1 [SIAIS249023, (2S,4R)-1-((S)-2-(10-(4-((4-((3,4-dichloro-2-fluorophenyl)amino)-7-methoxyquinazolin-6-yl)oxy)piperidin-1-yl)-10-oxodecanamido)-3,3-dimethylbutanoyl)-4-hydroxy-N-(4-(4-methylthiazol-5-yl)benzyl)pyrrolidine-2-carboxamide]
4 | 6.76 | COc1cc2ncnc(Nc3ccc(Cl)c(Cl)c3F)c2cc1OC1CCN(C(=O)COCCOCC(=O)N[C@H](C(=O)N2C[C@H](O)C[C@H]2C(=O)NCc2ccc(-c3scnc3C)cc2)C(C)(C)C)CC1 [SIAIS249024, (2S,4R)-1-((S)-2-(2-(2-(2-(4-((4-((3,4-dichloro-2-fluorophenyl)amino)-7-methoxyquinazolin-6-yl)oxy)piperidin-1-yl)-2-oxoethoxy)ethoxy)acetamido)-3,3-dimethylbutanoyl)-4-hydroxy-N-(4-(4-methylthiazol-5-yl)benzyl)pyrrolidine-2-carboxamide]
5 | 6.80 | COc1cc2ncnc(Nc3ccc(Cl)c(Cl)c3F)c2cc1OC1CCN(C(=O)CCOCCOCCC(=O)N[C@H](C(=O)N2C[C@H](O)C[C@H]2C(=O)NCc2ccc(-c3scnc3C)cc2)C(C)(C)C)CC1 [SIAIS249025, (2S,4R)-1-((S)-2-(3-(2-(3-(4-((4-((3,4-dichloro-2-fluorophenyl)amino)-7-methoxyquinazolin-6-yl)oxy)piperidin-1-yl)-3-oxopropoxy)ethoxy)propanamido)-3,3-dimethylbutanoyl)-4-hydroxy-N-(4-(4-methylthiazol-5-yl)benzyl)pyrrolidine-2-carboxamide]
6 | 6.58 | COc1cc2ncnc(Nc3ccc(Cl)c(Cl)c3F)c2cc1OC1CCN(C(=O)CCOCCOCCOCCC(=O)N[C@H](C(=O)N2C[C@H](O)C[C@H]2C(=O)NCc2ccc(-c3scnc3C)cc2)C(C)(C)C)CC1 [SIAIS249026, (2S,4R)-1-((S)-2-(tert-butyl)-16-(4-((4-((3,4-dichloro-2-fluorophenyl)amino)-7-methoxyquinazolin-6-yl)oxy)piperidin-1-yl)-4,16-dioxo-7,10,13-trioxa-3-azahexadecan-1-oyl)-4-hydroxy-N-(4-(4-methylthiazol-5-yl)benzyl)pyrrolidine-2-carboxamide]
7 | 6.40 | COc1cc2ncnc(Nc3ccc(Cl)c(Cl)c3F)c2cc1OC1CCN(C(=O)CCOCCOCCOCCOCCC(=O)N[C@H](C(=O)N2C[C@H](O)C[C@H]2C(=O)NCc2ccc(-c3scnc3C)cc2)C(C)(C)C)CC1 [SIAIS249027, (2S,4R)-1-((S)-2-(tert-butyl)-19-(4-((4-((3,4-dichloro-2-fluorophenyl)amino)-7-methoxyquinazolin-6-yl)oxy)piperidin-1-yl)-4,19-dioxo-7,10,13,16-tetraoxa-3-azanonadecan-1-oyl)-4-hydroxy-N-(4-(4-methylthiazol-5-yl)benzyl)pyrrolidine-2-carboxamide]
8 | 6.62 | COc1cc2ncnc(Nc3ccc(Cl)c(Cl)c3F)c2cc1OC1CCN(C(=O)CCOCCOCCOCCOCCOCCC(=O)N[C@H](C(=O)N2C[C@H](O)C[C@H]2C(=O)NCc2ccc(-c3scnc3C)cc2)C(C)(C)C)CC1 [SIAIS249028, (2S,4R)-1-((S)-2-(tert-butyl)-22-(4-((4-((3,4-dichloro-2-fluorophenyl)amino)-7-methoxyquinazolin-6-yl)oxy)piperidin-1-yl)-4,22-dioxo-7,10,13,16,19-pentaoxa-3-azadocosan-1-oyl)-4-hydroxy-N-(4-(4-methylthiazol-5-yl)benzyl)pyrrolidine-2-carboxamide]
9 | 7.10 | COc1cc2ncnc(Nc3ccc(Cl)c(Cl)c3F)c2cc1OC1CCN(C(=O)CCOCCNc2cccc3c2C(=O)N(C2CCC(=O)NC2=O)C3=O)CC1 (stereo not shown) [SIAIS249029, 4-((2-(3-(4-((4-((3,4-dichloro-2-fluorophenyl)amino)-7-methoxyquinazolin-6-yl)oxy)piperidin-1-yl)-3-oxopropoxy)ethyl)amino)-2-(2,6-dioxopiperidin-3-yl)isoindoline-1,3-dione]
10 | 8.20 | COc1cc2ncnc(Nc3ccc(Cl)c(Cl)c3F)c2cc1OC1CCN(C(=O)CCOCCOCCNc2cccc3c2C(=O)N(C2CCC(=O)NC2=O)C3=O)CC1 (stereo not shown) [SIAIS249030, 4-((2-(2-(3-(4-((4-((3,4-dichloro-2-fluorophenyl)amino)-7-methoxyquinazolin-6-yl)oxy)piperidin-1-yl)-3-oxopropoxy)ethoxy)ethyl)amino)-2-(2,6-dioxopiperidin-3-yl)isoindoline-1,3-dione]
11 | 7.55 | COc1cc2ncnc(Nc3ccc(Cl)c(Cl)c3F)c2cc1OC1CCN(C(=O)CCOCCOCCOCCNc2cccc3c2C(=O)N(C2CCC(=O)NC2=O)C3=O)CC1 (stereo not shown) [SIAIS249031, 4-((2-(2-(2-(3-(4-((4-((3,4-dichloro-2-fluorophenyl)amino)-7-methoxyquinazolin-6-yl)oxy)piperidin-1-yl)-3-oxopropoxy)ethoxy)ethoxy)ethyl)amino)-2-(2,6-dioxopiperidin-3-yl)isoindoline-1,3-dione]
12 | 7.96 | COc1cc2ncnc(Nc3ccc(Cl)c(Cl)c3F)c2cc1OC1CCN(C(=O)CCOCCOCCOCCOCCNc2cccc3c2C(=O)N(C2CCC(=O)NC2=O)C3=O)CC1 (stereo not shown) [SIAIS249032, 4-((15-(4-((4-((3,4-dichloro-2-fluorophenyl)amino)-7-methoxyquinazolin-6-yl)oxy)piperidin-1-yl)-15-oxo-3,6,9,12-tetraoxapentadecyl)amino)-2-(2,6-dioxopiperidin-3-yl)isoindoline-1,3-dione]
13 | 7.89 | COc1cc2ncnc(Nc3ccc(Cl)c(Cl)c3F)c2cc1OC1CCN(C(=O)CCOCCOCCOCCOCCOCCNc2cccc3c2C(=O)N(C2CCC(=O)NC2=O)C3=O)CC1 (stereo not shown) [SIAIS249033, 4-((18-(4-((4-((3,4-dichloro-2-fluorophenyl)amino)-7-methoxyquinazolin-6-yl)oxy)piperidin-1-yl)-18-oxo-3,6,9,12,15-pentaoxaoctadecyl)amino)-2-(2,6-dioxopiperidin-3-yl)isoindoline-1,3-dione]
